Tested on: IL-8
Test: Relative IL-8 mRNA expression in IL-1β-stimulated MKN-45 cells (real-time PCR)
Format: cell-based, human
Settings: IL-1β-stimulated DMSO-treated cells = 100%, ACTB reference
Experimental: RNA was extracted from the cells used in Example 2 according to the manufacturer's protocol for ABI Prism 6100 Nucleic Acid PrepStation (a nucleic acid isolation system, product of Applied Biosystems). More specifically, after removal of the culture supernatant and washing with 1 mL of PBS, 250 μL of Nucleic Acid Purification Lysis Solution (Part No. 4305895, Applied Biosystems) was added, and then agitated using a shaker for 2 to 3 minutes. The Lysis Solution containing the cell lysate was collected, and the total amount was transferred to the wells of RNA Purification Tray (Part No. 4305673, Applied Biosystems), which had been pre-wet with 40 μL of Nucleic Acid Purification Wash Solution I (Part No. 4305891, Applied Biosystems) beforehand. Aspiration (20% pressure) was performed for 2 minutes to adsorb the sample onto the RNA Purification Tray, followed by sequentially adding and aspirating (20% pressure, 2 min.) 500 μL of Wash Solution I, Nucleic Acid Purification (Part No. 4305891, Applied Biosystems), 400 μL of Wash Solution II, Nucleic Acid Purification (Part No. 4305890, product of Applied Biosystems), 400 μL of the Wash Solution II, and 300 μL of the Wash Solution II in that order. Aspiration (90% pressure) was performed for 5 minutes to remove the water content from the RNA Purification Trays. After addition of 150 μL of Elution Solution, Nucleic Acid Purification (Part No. 4305893, product of Applied Biosystems), aspiration (20% pressure) was performed for 2 minutes, while collecting the outflow. This was used as collected RNA solution.
Absorbance of the collected RNA solution at 260 nm was measured using a microplate spectrophotometer (“SpectraMax Plus”, product of Molecular Devices) with an analysis software (“SOFTmaxPRO ver.3.1.2”, product of Molecular Devices), and the RNA concentration was determined from the absorbance. Likewise, absorbance at 280 nm was measured and the purity of the RNA was determined using the analysis software.
cDNA was synthesized according to the manufacturer's protocol for TaqMan® Reverse Transcription Reagents (Part No. N808-0234, product of Applied Biosystems). More specifically, about 0.5 μg of RNA, 2.5 μL of 10×RT buffer, 5.5 μL of MgCl2 solution, 5 μL of dNTP mixture, 1.25 μL of random hexamer (primers), 0.5 μL of RNase inhibitor, and 0.63 μL of MultiScribe Reverse Transcriptase (product of Applied Biosystems) were added to each collected RNA sample in a tube, and DEPC-treated water was added to make a total volume of 25 μL and stirred. A reaction consisting of 25° C. for 10 minutes, 48° C. for 30 minutes, and 95° C. for 5 minutes was performed using a PCR thermal cycler (“TaKaRa PCR Thermal Cycler Dice”, product of Takara Bio Inc.) to prepare a cDNA solution.
PCR was performed according to the manufacturer's protocol for TaqMan® Gene Expression Assays (product of Applied Biosystems). More specifically, 5 μL of TaqMan® Fast Universal PCR Master Mix (product of Applied Biosystems), 0.5 μL of TaqMan® Gene Expression Assays for the target gene (gene-specific probe and primer sets, product of Applied Biosystems), and 4.5 μL of the above-obtained cDNA solution were added to each sample and stirred. A PCR reaction consisting of heating at 95° C. for 20 seconds, followed by 40 cycles consisting of heating at 95° C. for 3 seconds and annealing and extension at 60° C. for 30 seconds was performed using a real-time PCR device (“Applied Biosystems 7500 Real-Time PCR System”) with SDS v1.4 Software (product of Applied Biosystems). Threshold cycle (Ct) values were calculated using the software.
The Assay IDs of the TaqMan® Gene Expression Assays for the target genes used are as follows:
The expression level of each gene was determined according to the following formula using the level of ACTB as a reference standard.
(Relative mRNA expression level)=2̂−{(Ct value of the target gene)−(Ct value of ACTB)} […]

COc1ccc(CC2SC(=S)NC2=O)c2c1N(CCC(C)C)C(=O)CC2 (stereo not shown) [Test Compound 965]
IL-8 relative mRNA expression level, Mean: 61.2%

— patent publication US20090326008A1, “NF-kappa B Inhibitor” (priority 2006, published 2009)
